Reference: US7879760B2, “Isopentyl carboxanilides for combating undesired micro-organisms” (Bayer CropScience AG, priority 2003, dated 2011)
Counter-ions that a name gives are not always drawn. Each block holds one compound with its values, some of them ahead of it.

Columns and labels:
Venturia inaequalis = experiment: Venturia test (apple)/protective; type: in vivo; settings: apple plants, protective spray, application rate 100 g/ha, read-out: Efficacy in %
Method: [table] To produce a suitable preparation of active compound, 1 part by weight of active compound is mixed with the stated amounts of solvents and emulsifier, and the concentrate is diluted with water to the desired concentration. To test for protective activity, young plants are sprayed with the preparation of active compound at the stated application rates. After the spray coating has dried on, the plants are inoculated with an aqueous conidia suspension of the apple scab pathogen Venturia inaequalis and then remain in an incubation cabin at about 20° C. and 100% relative atmospheric humidity for 1 day. The plants are then placed in a greenhouse at about 21° C. and a relative atmospheric humidity of about 90%.

[1] = logP determination by HPLC on reversed phase column (C 18), EEC-Directive 79/831 Annex V.A8; type: physicochemical; settings: reversed phase HPLC column (C 18), pH 2.3, 0.1% aqueous phosphoric acid/acetonitrile gradient, 43° C.
Method: The determination of the logP values given in preparation examples and tables above is carried out according to EEC-Directive 79/831 Annex V.A8 by HPLC (High Performance Liquid Chromatography) on a reversed phase column (C 18). Temperature: 43° C.
Determination is carried out in the acidic range at pH 2.3 using the mobile phases 0.1% aqueous phosphoric acid and acetonitrile; linear gradient from 10% acetonitrile to 90% acetonitrile.
Calibration is carried out using unbranched alkan-2-ones (of 3 to 16 carbon atoms) whose logP values are known (determination of the logP values by retention times using linear interpolation between two successive alkanones).

Sphaerotheca fuliginea = experiment: Sphaerotheca test (cucumber)/protective; type: in vivo; settings: cucumber plants, protective spray; application rate 750 g/ha; evaluation 7 days after inoculation
Method: (§1) To produce a suitable preparation of active compound, 1 part by weight of active compound is mixed with the stated amounts of solvent and emulsifier, and the concentrate is diluted with water to the desired concentration.
To test for protective activity, young cucumber plants are sprayed with the preparation of active compound at the stated application rates. One day after the treatment, the plants are inoculated with a spore suspension of Sphaerotheca fuliginea. The plants are then placed in a greenhouse at 70% relative atmospheric humidity and a temperature of 23° C.
Evaluation is carried out 7 days after the inoculation. 0% means an efficacy which corresponds to that of the control, whereas an efficacy of 100% means that no infection is observed.

Podosphaera leucotricha = experiment: Podosphaera test (apple)/protective; type: in vivo; settings: 240 h, apple plants, protective spray, application rate 100 g/ha, evaluation 10 days after inoculation, read-out: Efficacy in %
Method: To produce a suitable preparation of active compound, 1 part by weight of compound is mixed with the stated amounts of solvents and emulsifier, and the concentrate is diluted with water to the desired concentration.
To test for protective activity, young plants are sprayed with the preparation of active compound at the stated application rates. After the spray coating has dried on, the plants are inoculated with an aqueous spore suspension of the apple mildew pathogen Podosphaera leucotricha. The plants are then placed in a greenhouse at about 23° C. and a relative atmospheric humidity of about 70%.
Evaluation is carried out 10 days after the inoculation. 0% means an efficacy which corresponds to that of the control, whereas an efficacy of 100% means that no infection is observed.

Botrytis cinerea = experiment: Botrytis test (bean)/protective; type: in vivo; settings: 48 h, bean plants, protective spray, application rate 500 g/ha, evaluation two days after inoculation, read-out: Efficacy in %
Method: To produce a suitable preparation of active compound, 1 part by weight of active compound is mixed with the stated amounts of solvents and emulsifier, and the concentrate is diluted with water to the desired concentration.
To test for protective activity, young plants are sprayed with the preparation of active compound at the stated application rates. After the spray coating has dried on, 2 small pieces of agar colonized by Botrytis cinerea are placed onto each leaf. The inoculated plants are placed in a dark chamber at about 20° C. and 100% relative atmospheric humidity.
Two days after the inoculation, the size of the infected areas on the leaves is evaluated. 0% means an efficacy which corresponds to that of the control, whereas an efficacy of 100% means that no infection is observed.

Puccinia recondita = experiment: Puccinia test (wheat)/curative; type: in vivo; settings: 192 h, wheat plants, curative spray 48 hours after inoculation, application rate 500 g/ha, evaluation 8 days after inoculation, read-out: Efficacy in %
Method: as §1
To test for curative activity, young plants are sprayed with a conidia suspension of Puccinia recondita. The plants remain in an incubation cabin at 20° C. and 100% relative atmospheric humidity for 48 hours. The plants are then sprayed with the preparation of active compound at the stated application rates.
The plants are then placed in a greenhouse at a temperature of about 20° C. and a relative atmospheric humidity of 80% to promote the development of rust pustules.
Evaluation is carried out 8 days after the inoculation. 0% means an efficacy which corresponds to that of the control, whereas an efficacy of 100% means that no infection is observed.

Structure (SMILES): CCC(C)(C)CCc1ccccc1NC(=O)c1cn(C)nc1C(F)F [drawing 106]
pest or weed control at 100 g/ha (Venturia inaequalis): 100%

chromatographic logP [1]: 4.55
Structure (SMILES): CC(C)(C)C#Cc1ccccc1NC(=O)c1ccccc1C(F)(F)F [Example (VII-1), N-[2-(3,3-dimethylbut-1-ynyl)phenyl]-2-trifluoromethylbenzamide]

chromatographic logP [1]: 2.2
Structure (SMILES): CC(C)(C)CCc1ccccc1N [Example (III-3), 2-(3,3-dimethylbutyl)phenylamine hydrochloride]

Structure (SMILES): Cn1cc(C(=O)Nc2ccc(F)cc2CCC(C)(C)C)c(C(F)F)n1 [drawing 109]
pest or weed control at 100 g/ha (Venturia inaequalis): 100%

Structure (SMILES): Cc1nn(C)c(F)c1C(=O)Nc1ccccc1CCC(C)C [drawing 128]
Efficacy in % (Sphaerotheca fuliginea): 100%

Structure (SMILES): CCC(C)(C)CCc1ccccc1NC(=O)c1c(C)nn(C)c1F [drawing 97]
pest or weed control at 100 g/ha (Podosphaera leucotricha): 99%

Structure (SMILES): Cc1ccsc1C(=O)Nc1ccccc1CCC(C)(C)C [drawing 129]
Efficacy in % (Sphaerotheca fuliginea): 100%

chromatographic logP [1]: 3.42
Structure (SMILES): Cc1nn(C)c(F)c1C(=O)Nc1ccccc1C(=O)CC(C)C [Example (V-1)]

Structure (SMILES): Cc1ccccc1C(=O)Nc1ccccc1CCC(C)(C)C [drawing 113]
pest or weed control at 500 g/ha (Botrytis cinerea): 87%

Structure (SMILES): CCC(C)(C)CCc1ccccc1NC(=O)c1cn(C)nc1C(F)F [drawing 125]
pest or weed control at 500 g/ha (Puccinia recondita): 100%

Structure (SMILES): CCC(C)(C)CCc1ccccc1NC(=O)c1c(C)nn(C)c1F [drawing 114]
pest or weed control at 500 g/ha (Botrytis cinerea): 100%

Structure (SMILES): Cc1nn(C)c(F)c1C(=O)Nc1ccccc1CCC(C)(C)C [drawing 120]
pest or weed control at 500 g/ha (Puccinia recondita): 100%

Structure (SMILES): Cn1cc(C(=O)Nc2ccccc2CCC(C)(C)C)c(C(F)F)n1 [drawing 126]
pest or weed control at 500 g/ha (Puccinia recondita): 100%

chromatographic logP [1]: 3.03
Structure (SMILES): CC(=O)Nc1ccccc1C#CC(C)(C)C [Example (XIII-1), N-[2-(3,3-dimethylbut-1-ynyl)-phenyl]acetamide]

chromatographic logP [1]: 2.69
Structure (SMILES): CC(=O)Nc1ccccc1CCC(C)(C)C [Example (III-2), N-[2-(3,3-dimethylbutyl)phenyl]acetamide]

Structure (SMILES): CCC(C)(C)CCc1ccccc1NC(=O)c1cn(C)nc1C(F)F [drawing 115]
pest or weed control at 500 g/ha (Botrytis cinerea): 100%

Structure (SMILES): Cc1ccccc1C(=O)Nc1ccccc1CCC(C)(C)C [drawing 131]
Efficacy in % (Sphaerotheca fuliginea): 100%

Structure (SMILES): CC(C)CCc1ccccc1NC(=O)c1ccccc1C(F)(F)F [drawing 122]
pest or weed control at 500 g/ha (Puccinia recondita): 100%

Structure (SMILES): Cc1ccccc1C(=O)Nc1ccccc1CCC(C)(C)C [drawing 104]
pest or weed control at 100 g/ha (Venturia inaequalis): 97%

Structure (SMILES): Cc1nn(C)c(F)c1C(=O)Nc1ccccc1CCC(C)C [drawing 101]
pest or weed control at 100 g/ha (Venturia inaequalis): 96%

Structure (SMILES): Cc1nn(C)c(F)c1C(=O)Nc1ccccc1CCC(C)C [drawing 93]
pest or weed control at 100 g/ha (Podosphaera leucotricha): 100%

Structure (SMILES): Cn1nc(C(F)(F)F)c(C(=O)Nc2ccccc2CCC(C)(C)C)c1F [drawing 100]
pest or weed control at 100 g/ha (Podosphaera leucotricha): 100%

chromatographic logP [1]: 3.12
Structure (SMILES): Cc1nn(C)c(F)c1C(=O)Nc1ccccc1CCC(C)C [Example 1, 5-fluoro-1,3-dimethyl-N-[2-(3-methylbutyl)phenyl]-1H-pyrazole-4-carboxamide]

Structure (SMILES): CCC(C)(C)CCc1ccccc1NC(=O)c1cn(C)nc1C(F)F [drawing 98]
pest or weed control at 100 g/ha (Podosphaera leucotricha): 100%

Structure (SMILES): Cc1nn(C)c(F)c1C(=O)Nc1ccccc1CCC(C)(C)C [drawing 111]
pest or weed control at 500 g/ha (Botrytis cinerea): 100%

Structure (SMILES): CCC(C)(C)CCc1ccccc1NC(=O)c1c(C)nn(C)c1F [drawing 124]
pest or weed control at 500 g/ha (Puccinia recondita): 100%

Structure (SMILES): Cc1ccsc1C(=O)Nc1ccccc1CCC(C)(C)C [drawing 121]
pest or weed control at 500 g/ha (Puccinia recondita): 100%

Structure (SMILES): Cc1nn(C)c(F)c1C(=O)Nc1ccccc1CCC(C)C [drawing 119]
pest or weed control at 500 g/ha (Puccinia recondita): 100%

Structure (SMILES): Cn1cc(C(=O)Nc2ccccc2CCC(C)(C)C)c(C(F)F)n1 [drawing 116]
pest or weed control at 500 g/ha (Botrytis cinerea): 100%

Structure (SMILES): CCC(C)(C)CCc1ccccc1NC(=O)c1c(C)nn(C)c1F [drawing 105]
pest or weed control at 100 g/ha (Venturia inaequalis): 100%

Structure (SMILES): Cn1nc(C(F)(F)F)c(C(=O)Nc2ccccc2CCC(C)(C)C)c1F [drawing 117]
pest or weed control at 500 g/ha (Botrytis cinerea): 100%

Structure (SMILES): Cn1cc(C(=O)Nc2ccc(F)cc2CCC(C)(C)C)c(C(F)F)n1 [drawing 118]
pest or weed control at 500 g/ha (Botrytis cinerea): 100%

Structure (SMILES): Cc1nn(C)c(F)c1C(=O)Nc1ccccc1CCC(C)(C)C [drawing 94]
pest or weed control at 100 g/ha (Podosphaera leucotricha): 100%

Structure (SMILES): Cc1nn(C)c(F)c1C(=O)Nc1ccccc1CCC(C)C [drawing 110]
pest or weed control at 500 g/ha (Botrytis cinerea): 84%

Structure (SMILES): CC(C)CCc1ccccc1NC(=O)c1ccccc1C(F)(F)F [drawing 130]
Efficacy in % (Sphaerotheca fuliginea): 100%

chromatographic logP [1]: 2.89
Structure (SMILES): CC(C)CC(=O)c1ccccc1N [Example (X-1), 1-(2-aminophenyl)-3-methylbutan-1-one]

Structure (SMILES): Cc1nn(C)c(F)c1C(=O)Nc1ccccc1CCC(C)(C)C [drawing 102]
pest or weed control at 100 g/ha (Venturia inaequalis): 100%

Structure (SMILES): Cn1nc(C(F)(F)F)c(C(=O)Nc2ccccc2CCC(C)(C)C)c1F [drawing 108]
pest or weed control at 100 g/ha (Venturia inaequalis): 100%

Structure (SMILES): Cc1ccsc1C(=O)Nc1ccccc1CCC(C)(C)C [drawing 103]
pest or weed control at 100 g/ha (Venturia inaequalis): 99%

Structure (SMILES): Cn1cc(C(=O)Nc2ccccc2CCC(C)(C)C)c(C(F)F)n1 [drawing 107]
pest or weed control at 100 g/ha (Venturia inaequalis): 100%

Structure (SMILES): Cc1ccccc1C(=O)Nc1ccccc1CCC(C)C
pest or weed control at 500 g/ha (Puccinia recondita): 100%

Structure (SMILES): Cn1cc(C(=O)Nc2ccc(F)cc2CCC(C)(C)C)c(C(F)F)n1 [drawing 127]
pest or weed control at 500 g/ha (Puccinia recondita): 100%

Structure (SMILES): Cc1ccsc1C(=O)Nc1ccccc1CCC(C)(C)C [drawing 95]
pest or weed control at 100 g/ha (Podosphaera leucotricha): 99%

Structure (SMILES): Cc1ccsc1C(=O)Nc1ccccc1CCC(C)(C)C [drawing 112]
pest or weed control at 500 g/ha (Botrytis cinerea): 100%

Structure (SMILES): Cn1cc(C(=O)Nc2ccccc2CCC(C)(C)C)c(C(F)F)n1 [drawing 99]
pest or weed control at 100 g/ha (Podosphaera leucotricha): 100%

Structure (SMILES): Cc1ccccc1C(=O)Nc1ccccc1CCC(C)(C)C [drawing 96]
pest or weed control at 100 g/ha (Podosphaera leucotricha): 97%
